Values after ≈ are worked out from the molar mass of the structure shown. Active and inactive are the calls of the source. The rule behind the calls is not given here.
What was measured:
[1] = test system: Mus musculus; test: Neurotoxicity in CD1 mouse assessed as motor impairment at 32 to 64 mg/kg, ip measured after 30 to 180 mins by rotarod test; assay type: toxicity, organism-based; design: route intraperitoneal; settings: in vivo
[2] = test system: Mus musculus; test: Antihyperalgesic activity in CD1 mouse partial sciatic nerve ligation model assessed as inhibition of thermal hyperalgesia at 16 to 64 mg/kg, ip administered 45 mins by plantar test; assay type: functional, organism-based
[3] = test system: Mus musculus; test: Antiallodynic activity in CD1 mouse partial sciatic nerve ligation model assessed as inhibition of mechanical allodynia at 16 to 64 mg/kg, ip administered 30 mins by von Frey test; assay type: functional, organism-based
[4] = test system: Mus musculus; test: Inhibition of capsaicin-induced mechanical hypersensitivity in CD1 mouse assessed as paw withdrawal latency at 32 mg/kg, ip administered 15 mins prior to capsaicin challenge measured 30 mins post capsaicin challenge; assay type: functional; settings: route intraperitoneal
[5] = Intrinsic clearance in human liver microsomes assessed as per mg of protein at 10 uM; assay type: ADME, Microsome; settings: read-out: CLH
[6] = Displacement of [3H]di-o-tolylguanidine from sigma 2 receptor in guinea pig brain membranes after 120 mins by scintillation counter; assay type: cell membranes, Cavia porcellus, Membrane
[7] = biological target: Voltage-gated inwardly rectifying potassium channel KCNH2 (Homo sapiens, UniProt Q12809)
Description: Inhibition of human ERG transfected in HEK293 cell membranes by whole cell patch clamp assay

[8] = biological target: Sigma non-opioid intracellular receptor 1 (Homo sapiens, UniProt Q99720); test: biochemical
Description: Displacement of [3H](+)pentazocine from human sigma 1 receptor transfected in HEK293 cell membranes after 120 mins by scintillation counter

[9] = test system: Mus musculus; test: Analgesic activity in CD1 mouse assessed as inhibition of capsaicin-induced mechanical hypersensitivity at 16 mg/kg, ip administered 15 mins prior to capsaicin challenge measured 30 mins post capsaicin challenge; assay type: functional; settings: route intraperitoneal
[10] = biological target: T1, Cytochrome P450 2E1 (Homo sapiens, UniProt P05181); test: Inhibition of human recombinant CYP2E1; assay type: ADME
[11] = biological target: T2, Cytochrome P450 2D6 (Homo sapiens, UniProt P10635); test: Inhibition of human recombinant CYP2D6; assay type: ADME
[12] = Lipophilicity, log D of the compound by PH-metrivc technique; assay type: physicochemical; settings: octanol/water
[13] = biological target: T3, Cytochrome P450 1A2 (Homo sapiens, UniProt P05177); test: Inhibition of human recombinant CYP1A2; assay type: ADME
T3 sequence (P05177 whole entry): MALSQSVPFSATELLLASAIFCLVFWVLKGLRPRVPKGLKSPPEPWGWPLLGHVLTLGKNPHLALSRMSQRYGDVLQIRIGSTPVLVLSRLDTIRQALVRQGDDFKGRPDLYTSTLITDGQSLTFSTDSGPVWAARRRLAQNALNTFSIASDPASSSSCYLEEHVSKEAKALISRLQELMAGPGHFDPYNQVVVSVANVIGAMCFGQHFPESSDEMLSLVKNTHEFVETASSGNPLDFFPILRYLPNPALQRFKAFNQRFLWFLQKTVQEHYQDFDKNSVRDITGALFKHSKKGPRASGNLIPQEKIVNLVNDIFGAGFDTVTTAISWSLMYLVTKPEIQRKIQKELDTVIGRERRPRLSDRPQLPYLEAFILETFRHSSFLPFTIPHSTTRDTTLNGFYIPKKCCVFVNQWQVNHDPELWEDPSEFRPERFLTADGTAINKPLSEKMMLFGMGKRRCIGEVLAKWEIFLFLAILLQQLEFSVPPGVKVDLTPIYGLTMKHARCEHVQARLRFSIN

[14] = biological target: T4, Cytochrome P450 2B6 (Homo sapiens, UniProt P20813); test: Inhibition of human recombinant CYP2B6; assay type: ADME
T4 sequence (P20813 whole entry): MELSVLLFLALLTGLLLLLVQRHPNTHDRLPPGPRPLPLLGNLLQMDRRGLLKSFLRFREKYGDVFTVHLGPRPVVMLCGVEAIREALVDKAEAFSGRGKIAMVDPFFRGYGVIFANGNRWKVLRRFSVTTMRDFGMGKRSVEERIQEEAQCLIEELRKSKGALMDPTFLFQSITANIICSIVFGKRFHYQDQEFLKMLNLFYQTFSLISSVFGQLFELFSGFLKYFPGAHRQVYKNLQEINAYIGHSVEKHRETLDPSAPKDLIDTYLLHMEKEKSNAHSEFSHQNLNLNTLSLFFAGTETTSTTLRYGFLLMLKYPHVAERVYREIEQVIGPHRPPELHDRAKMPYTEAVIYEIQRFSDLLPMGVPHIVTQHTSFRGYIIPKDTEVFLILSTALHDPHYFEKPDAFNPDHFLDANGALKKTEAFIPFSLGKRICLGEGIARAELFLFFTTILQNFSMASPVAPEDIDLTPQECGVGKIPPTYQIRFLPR

[15] = biological target: T5, Cytochrome P450 2C8 (Homo sapiens, UniProt P10632); test: Inhibition of human recombinant CYP2C8; assay type: ADME
T5 sequence (P10632 whole entry): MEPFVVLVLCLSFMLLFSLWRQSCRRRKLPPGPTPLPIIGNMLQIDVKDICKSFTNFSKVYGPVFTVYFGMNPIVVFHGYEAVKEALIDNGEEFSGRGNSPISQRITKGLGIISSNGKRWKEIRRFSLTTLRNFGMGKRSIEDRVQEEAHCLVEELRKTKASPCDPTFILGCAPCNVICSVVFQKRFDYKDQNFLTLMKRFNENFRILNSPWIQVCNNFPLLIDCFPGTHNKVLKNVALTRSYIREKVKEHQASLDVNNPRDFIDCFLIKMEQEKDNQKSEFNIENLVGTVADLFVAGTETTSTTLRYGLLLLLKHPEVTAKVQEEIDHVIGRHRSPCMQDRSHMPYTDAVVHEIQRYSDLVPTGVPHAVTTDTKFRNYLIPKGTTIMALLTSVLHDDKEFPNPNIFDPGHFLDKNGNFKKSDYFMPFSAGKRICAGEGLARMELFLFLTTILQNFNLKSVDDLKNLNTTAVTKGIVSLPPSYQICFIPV

[16] = biological target: T6, Cytochrome P450 2C9 (Homo sapiens, UniProt P11712); test: Inhibition of human recombinant CYP2C9; assay type: ADME
[17] = biological target: T1, Cytochrome P450 2E1; test: Inhibition of CYP2E1 in human liver microsomes; assay type: ADME, Microsome
[18] = biological target: T7, Cytochrome P450 2C19 (Homo sapiens, UniProt P33261); test: Inhibition of CYP2C19 in human liver microsomes; assay type: ADME, Microsome
[19] = biological target: T6, Cytochrome P450 2C9; test: Inhibition of CYP2C9 in human liver microsomes; assay type: ADME, Microsome
[20] = biological target: T5, Cytochrome P450 2C8; test: Inhibition of CYP2C8 in human liver microsomes; assay type: ADME, Microsome
[21] = biological target: T4, Cytochrome P450 2B6; test: Inhibition of CYP2B6 in human liver microsomes; assay type: ADME, Microsome
[22] = test system: Mus musculus; test: Cmax in CD1 mouse at 10 mg/kg, po at 0.5 hrs; assay type: ADME, organism-based; design: dose 10 mg/kg, route oral; settings: in vivo
[23] = biological target: T3, Cytochrome P450 1A2; test: Inhibition of CYP1A2 in human liver microsomes; assay type: ADME, Microsome
[24] = AUC in CD1 mouse at 10 mg/kg, po; assay type: ADME, organism-based; design: dose 10 mg/kg, route oral; settings: plasma
[25] = Apparent permeability across human Caco2 cells at 10 uM after 2 hrs; assay type: ADME, cell-based; settings: Caco-2
[26] = test system: Mus musculus; test: Antihyperalgesic activity in ip dosed CD1 mouse partial sciatic nerve ligation model assessed as inhibition of thermal hyperalgesia administered 45 mins by plantar test; assay type: functional
[27] = test system: Mus musculus; test: Antiallodynic activity in ip dosed CD1 mouse partial sciatic nerve ligation model assessed as inhibition of mechanical allodynia administered 30 mins by von Frey test; assay type: functional
[28] = biological target: T8, 5-hydroxytryptamine receptor 2B (Homo sapiens, UniProt P41595); test: Binding affinity to human 5HT2B receptor
[29] = biological target: T8, 5-hydroxytryptamine receptor 2B; test: Antagonist activity at human 5HT2B receptor; assay type: functional
[30] = Binding affinity to rat sigma 2 receptor
[31] = Thermodynamic solubility of the compound in phosphate buffer at pH 7.4; assay type: physicochemical; settings: read-out: Therm_solubility
[32] = Dissociation constant, pKa of the compound; assay type: physicochemical
[33] = biological target: T7, Cytochrome P450 2C19; test: Inhibition of human recombinant CYP2C19; assay type: ADME
[34] = biological target: T2, Cytochrome P450 2D6; test: Inhibition of CYP2D6 in human liver microsomes; assay type: ADME, Microsome
[35] = Partition coefficient, log P of the compound by PH-metrivc technique; assay type: physicochemical; settings: octanol/water

T7 sequence (P33261 whole entry): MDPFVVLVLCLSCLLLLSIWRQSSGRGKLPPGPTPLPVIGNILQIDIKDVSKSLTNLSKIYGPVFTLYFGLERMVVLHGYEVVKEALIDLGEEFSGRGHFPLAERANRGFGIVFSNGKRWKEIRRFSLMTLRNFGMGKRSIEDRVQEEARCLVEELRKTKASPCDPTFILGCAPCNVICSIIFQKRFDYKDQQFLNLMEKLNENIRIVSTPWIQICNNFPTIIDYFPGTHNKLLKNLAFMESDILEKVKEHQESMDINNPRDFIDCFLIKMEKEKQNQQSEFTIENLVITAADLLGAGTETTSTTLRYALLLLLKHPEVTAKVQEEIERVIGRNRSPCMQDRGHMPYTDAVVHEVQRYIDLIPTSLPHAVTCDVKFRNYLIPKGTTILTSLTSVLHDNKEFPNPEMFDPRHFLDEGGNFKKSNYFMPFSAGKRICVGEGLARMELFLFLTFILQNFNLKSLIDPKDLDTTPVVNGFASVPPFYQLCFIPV
T8 sequence (P41595 whole entry): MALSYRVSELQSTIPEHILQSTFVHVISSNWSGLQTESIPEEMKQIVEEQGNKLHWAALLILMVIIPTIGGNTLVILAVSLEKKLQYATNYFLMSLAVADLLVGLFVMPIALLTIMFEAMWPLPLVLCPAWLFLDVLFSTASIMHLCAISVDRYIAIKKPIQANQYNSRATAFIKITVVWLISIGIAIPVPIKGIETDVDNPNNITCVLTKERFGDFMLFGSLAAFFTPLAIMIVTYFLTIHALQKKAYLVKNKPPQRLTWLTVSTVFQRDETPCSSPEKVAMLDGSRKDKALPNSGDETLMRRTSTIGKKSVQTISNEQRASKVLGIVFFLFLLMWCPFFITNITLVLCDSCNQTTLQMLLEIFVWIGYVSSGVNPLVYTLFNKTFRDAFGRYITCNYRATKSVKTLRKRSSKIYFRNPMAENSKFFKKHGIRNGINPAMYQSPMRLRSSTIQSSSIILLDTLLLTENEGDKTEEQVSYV
T1 sequence (P05181 whole entry): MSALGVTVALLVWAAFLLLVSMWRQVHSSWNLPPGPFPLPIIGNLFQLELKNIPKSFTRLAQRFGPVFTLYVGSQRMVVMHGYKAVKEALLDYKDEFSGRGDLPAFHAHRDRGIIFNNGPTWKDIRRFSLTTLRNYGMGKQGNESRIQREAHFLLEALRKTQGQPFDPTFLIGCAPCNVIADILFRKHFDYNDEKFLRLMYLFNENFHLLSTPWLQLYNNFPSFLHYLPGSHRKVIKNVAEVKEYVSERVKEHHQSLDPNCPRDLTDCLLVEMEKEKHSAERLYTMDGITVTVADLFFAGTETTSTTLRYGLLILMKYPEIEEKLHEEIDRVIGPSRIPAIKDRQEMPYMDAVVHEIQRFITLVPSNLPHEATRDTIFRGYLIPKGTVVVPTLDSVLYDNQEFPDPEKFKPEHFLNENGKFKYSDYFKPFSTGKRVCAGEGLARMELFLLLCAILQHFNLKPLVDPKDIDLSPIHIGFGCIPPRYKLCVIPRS
Sequence of Sigma non-opioid intracellular receptor 1 (Q99720 whole entry): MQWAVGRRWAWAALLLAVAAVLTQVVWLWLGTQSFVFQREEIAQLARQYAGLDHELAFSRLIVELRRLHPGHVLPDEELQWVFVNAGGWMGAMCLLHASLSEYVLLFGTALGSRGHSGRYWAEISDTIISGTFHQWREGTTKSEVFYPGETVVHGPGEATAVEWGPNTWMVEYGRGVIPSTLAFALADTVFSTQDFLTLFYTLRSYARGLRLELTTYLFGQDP
Sequence of Voltage-gated inwardly rectifying potassium channel KCNH2 (Q12809 whole entry): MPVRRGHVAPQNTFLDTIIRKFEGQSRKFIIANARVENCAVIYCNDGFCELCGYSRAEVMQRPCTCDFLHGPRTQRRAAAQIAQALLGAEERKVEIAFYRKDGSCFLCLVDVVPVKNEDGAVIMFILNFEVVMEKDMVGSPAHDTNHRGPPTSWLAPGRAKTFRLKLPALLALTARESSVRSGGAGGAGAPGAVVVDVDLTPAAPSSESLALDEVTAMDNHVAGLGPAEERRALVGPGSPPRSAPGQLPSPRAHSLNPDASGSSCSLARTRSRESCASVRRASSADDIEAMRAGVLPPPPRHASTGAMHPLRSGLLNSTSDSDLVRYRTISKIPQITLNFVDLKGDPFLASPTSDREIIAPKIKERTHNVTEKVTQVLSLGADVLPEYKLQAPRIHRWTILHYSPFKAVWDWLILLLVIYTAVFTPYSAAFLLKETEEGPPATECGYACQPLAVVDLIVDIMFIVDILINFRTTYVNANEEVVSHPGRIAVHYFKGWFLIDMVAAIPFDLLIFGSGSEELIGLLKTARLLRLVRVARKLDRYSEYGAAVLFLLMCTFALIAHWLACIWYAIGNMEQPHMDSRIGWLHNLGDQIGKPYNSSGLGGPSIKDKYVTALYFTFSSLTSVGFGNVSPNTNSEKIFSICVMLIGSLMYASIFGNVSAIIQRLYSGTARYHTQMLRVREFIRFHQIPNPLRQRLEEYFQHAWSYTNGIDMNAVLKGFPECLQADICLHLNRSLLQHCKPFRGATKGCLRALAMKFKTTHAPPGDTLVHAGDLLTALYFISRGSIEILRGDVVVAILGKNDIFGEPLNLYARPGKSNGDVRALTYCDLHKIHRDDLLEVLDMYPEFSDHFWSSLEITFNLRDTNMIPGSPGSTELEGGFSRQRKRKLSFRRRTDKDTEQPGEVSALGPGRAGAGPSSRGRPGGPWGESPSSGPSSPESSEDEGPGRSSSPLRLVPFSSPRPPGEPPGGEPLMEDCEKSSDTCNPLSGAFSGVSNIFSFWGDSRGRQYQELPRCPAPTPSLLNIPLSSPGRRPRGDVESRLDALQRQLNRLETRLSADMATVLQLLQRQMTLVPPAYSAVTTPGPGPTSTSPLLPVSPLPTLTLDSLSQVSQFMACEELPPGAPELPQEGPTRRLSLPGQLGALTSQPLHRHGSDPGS
T2 sequence (P10635 whole entry): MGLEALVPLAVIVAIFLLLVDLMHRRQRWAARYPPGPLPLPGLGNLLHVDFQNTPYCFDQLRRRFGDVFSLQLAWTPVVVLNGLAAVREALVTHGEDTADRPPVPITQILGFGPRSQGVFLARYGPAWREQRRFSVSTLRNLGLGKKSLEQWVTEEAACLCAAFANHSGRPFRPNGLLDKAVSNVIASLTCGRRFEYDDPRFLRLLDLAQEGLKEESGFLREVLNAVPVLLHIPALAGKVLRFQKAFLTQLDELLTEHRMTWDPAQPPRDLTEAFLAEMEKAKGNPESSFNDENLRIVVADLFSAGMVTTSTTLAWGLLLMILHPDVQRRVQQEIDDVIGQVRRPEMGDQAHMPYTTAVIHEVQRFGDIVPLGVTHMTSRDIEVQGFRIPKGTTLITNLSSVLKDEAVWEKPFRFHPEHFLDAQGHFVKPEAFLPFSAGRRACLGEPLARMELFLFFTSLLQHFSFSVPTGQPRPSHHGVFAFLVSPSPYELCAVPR
T6 sequence (P11712 whole entry): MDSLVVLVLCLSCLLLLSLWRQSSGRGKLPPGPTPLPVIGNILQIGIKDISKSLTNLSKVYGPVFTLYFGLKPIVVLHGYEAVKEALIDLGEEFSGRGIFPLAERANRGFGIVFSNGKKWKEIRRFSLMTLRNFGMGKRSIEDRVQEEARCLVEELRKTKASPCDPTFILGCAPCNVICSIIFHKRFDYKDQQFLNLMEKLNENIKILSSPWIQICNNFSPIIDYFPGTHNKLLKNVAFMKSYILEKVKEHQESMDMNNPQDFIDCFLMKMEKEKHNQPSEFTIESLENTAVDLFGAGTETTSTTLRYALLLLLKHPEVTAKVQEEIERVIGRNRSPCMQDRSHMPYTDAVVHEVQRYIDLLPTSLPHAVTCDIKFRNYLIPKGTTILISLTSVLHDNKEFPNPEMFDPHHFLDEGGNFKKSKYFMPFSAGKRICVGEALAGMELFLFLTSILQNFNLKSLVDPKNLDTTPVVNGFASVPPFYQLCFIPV

SMILES: CC(C)C[C@H](CN)CC(=O)O [PREGABALIN]
- Activity [1]: Toxic
- inhibition [2]: Active
- inhibition [3]: Active

SMILES: c1ccc2cc(-n3ccc(OCCN4CCOCC4)n3)ccc2c1
- inhibition in vivo at 32 mg/kg [4]: 55%
- microsomal CLint at 10 µM [5]: 6 µL/min/mg
- Ki [6]: > 1 µM
- IC50 [7]: > 10 µM
- Ki [8]: 0.0333 µM

SMILES: CC(=O)C1CCN(CCOc2ccn(-c3ccc(Cl)c(Cl)c3)n2)CC1
- inhibition in vivo at 16 mg/kg [9]: 73%
- microsomal CLint at 10 µM [5]: 7 µL/min/mg
- Ki [6]: > 1 µM
- IC50 [7]: 4.5 µM
- Ki [8]: 0.0072 µM

SMILES: Cc1cc(OCCN2CCOCC2)nn1-c1ccc2ccccc2c1
- IC50 [10]: > 10 µM
- IC50 [11]: > 10 µM
- logD [12]: 3.4
- IC50 [13]: > 10 µM
- IC50 [14]: > 10 µM
- IC50 [15]: > 10 µM
- IC50 [16]: > 10 µM
- IC50 [17]: > 10 µM
- IC50 [18]: > 10 µM
- IC50 [19]: > 10 µM
- IC50 [20]: > 10 µM
- IC50 [21]: > 10 µM
- Cmax [22]: 62 ng/mL
- IC50 [23]: > 10 µM
- AUC [24]: 958 ng·h/mL
- Papp at 2 h, 10 µM [25]: 37 ×10⁻⁶ cm/s
- Activity [1]: Non-toxic
- inhibition [26]: Dose-dependent effect
- ED50 ([26]; 0.75 h): 18.8 mg/kg
- inhibition [27]: Dose-dependent effect
- ED50 ([27]; 0.5 h): 23.4 mg/kg
- Ki [28]: 0.328 µM
- IC50 [29]: 4.7 µM
- Ki [30]: 9.3 µM
- inhibition in vivo at 32 mg/kg [4]: 62%
- inhibition in vivo at 16 mg/kg [9]: 43%
- microsomal CLint at 10 µM [5]: 3 µL/min/mg
- solubility thermodynamic [31]: 200 µg/mL (≈ 593 µM)
- pKa [32]: 6.5
- Ki [6]: > 1 µM
- IC50 [33]: > 10 µM
- IC50 [34]: > 10 µM
- logP [35]: 3.5
